Converted amounts (≈) assume the structure as drawn.
Assays:
[1] = test system: Escherichia coli (E. coli) BAS849; assay: Antibacterial activity, microbroth dilution MIC (Table 1); assay type: cell-based; settings: microbroth dilution, super sensitive Gram-negative E. coli BAS849, read-out: MIC, BAS849
Outline: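 Read-out: visual absence of growth. The lowest concentration meeting this gives the MIC, expressed in μg/mL, with microbroth dilution as the method.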

[2] = test system: Staphylococcus aureus (S. aureus) 29213; assay: as above; assay type: cell-based; settings: microbroth dilution, Gram-positive S. aureus 29213, read-out: MIC, 29213
Outline: (§1)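 Values are MICs (μg/mL): the smallest drug amount at which macroscopically visible bacterial growth is absent under assay conditions, from a microdilution method in broth.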

E. coli 25922 = assay: as above; assay type: cell-based, Escherichia coli; settings: Escherichia coli; microbroth dilution; control Gram-negative E. coli 25922 strain; read-out: MIC, 25922
Outline: as §1

E. coli LZ3111 = assay: Antibacterial activity, MIC, quinolone resistant strain (Table 2); assay type: cell-based; settings: Escherichia coli, LZ3111, read-out: MIC LZ3111
Outline: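 Broth microdilution. Read-out: MIC in μg/mL, taken as lowest concentration with no macroscopically visible growth.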

E. coli ELZ4000 = assay: Antibacterial activity, MIC, multi-drug resistant clinical isolate (Table 3); assay type: cell-based; settings: Escherichia coli, ELZ4000, read-out: MIC ELZ4000
Outline: (§2)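 MIC (μg/mL) read as lowest concentration with no macroscopically visible growth, determined by microbroth dilution.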

E. coli ELZ4251 = assay: as above; assay type: cell-based; settings: Escherichia coli
Outline: as §2

[3] = test system: Haemophilus influenzae (H. influenzae) 49247; assay: Antibacterial activity, MIC (Table 6); assay type: cell-based
Text: (§3) The antibacterial activity from a microbroth dilution method may be presented as the minimum inhibitory concentration (MIC in μg/mL). The MIC value is the lowest concentration of drug which prevents macroscopically visible growth under test conditions.
(§4) Antibacterial activity of test compounds against the Gram-negative bacteria Haemophilus influenzae (H. influenzae) 49247 is shown in Table 6, Moraxella catarrhalis (M. catarrhalis) 25238 is shown in Table 7 and Neisseria meningitidis (N. meningitidis) 13090 is shown in Table 8.

[4] = test system: Acinetobacter baumannii (A. baumannii) BAA747; assay: Antibacterial activity, MIC (Table 4); assay type: cell-based; settings: A. baumannii BAA747, read-out: MIC, BAA747
Outline: (§5)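 MIC in μg/mL by microbroth dilution, scored as the lowest level that suppresses visible growth.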

[5] = test system: Klebsiella pneumoniae (K. pneumoniae) 35657; assay: Antibacterial activity, MIC (Table 4); assay type: cell-based; settings: K. pneumoniae 35657, read-out: MIC, 35657
Outline: as §5

A. baumannii MXX2240 = assay: Antibacterial activity, MIC, resistant strain (Table 4); assay type: cell-based; settings: Acinetobacter baumannii, MXX2240; resistant A. baumannii MMX2240, multi-drug resistant clinical isolate; read-out: MIC, MMX2240
Outline: as §5

K. pneumoniae MXX1232 = assay: as above; assay type: cell-based; settings: Klebsiella pneumoniae, MXX1232; resistant K. pneumoniae MMX1232, multi-drug resistant clinical isolate; read-out: MIC, MMX1232
Outline: as §5

[6] = test system: Pseudomonas aeruginosa (P. aeruginosa) 27853; assay: Antibacterial activity, MIC (Table 5); assay type: cell-based; settings: P. aeruginosa 27853, read-out: MIC, 27853
Outline: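 Microbroth dilution; MIC (μg/mL) = lowest concentration with no macroscopically visible growth.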

[7] = test system: Neisseria meningitidis (N. meningitidis) 13090; assay: Antibacterial activity, MIC (Table 8); assay type: cell-based
Text: as §3, §4

| SMILES | MIC [1] [µg/mL] | MIC [2] [µg/mL] | MIC (E. coli 25922) [µg/mL] | MIC (E. coli LZ3111) [µg/mL] | MIC (E. coli ELZ4000) [µg/mL] | MIC (E. coli ELZ4251) [µg/mL] | MIC [3] [µg/mL] | MIC [4] [µg/mL] | MIC [5] [µg/mL] | MIC (A. baumannii MXX2240) [µg/mL] | MIC (K. pneumoniae MXX1232) [µg/mL] | MIC [6] [µg/mL] | MIC [7] [µg/mL] |
| --- | --- | --- | --- | --- | --- | --- | --- | --- | --- | --- | --- | --- | --- |
| CCc1cc(C(=O)O)c(=O)[nH]c1-c1ccc2c(ccn2CC)c1 [Cpd 9, 5-ethyl-6-(1-ethyl-1H-indol-5-yl)-2-oxo-1,2-dihydropyridine-3-carboxylic acid] | < 1 | 12.5 to 150 (≈ 40.3 to 483 µM) | 1 to 3.5 (≈ 3.22 to 11.3 µM) | 12.5 to 150 (≈ 40.3 to 483 µM) | 12.5 to 150 (≈ 40.3 to 483 µM) | 12.5 to 150 (≈ 40.3 to 483 µM) | < 1 | – | – | – | – | – | – |
| CCc1c(-c2ccc3c(c2)oc(=O)n3C)[nH]c(=O)c(C(=O)O)c1O [Cpd 11, 5-ethyl-4-hydroxy-6-(3-methyl-2-oxo-2,3-dihydrobenzo[d]oxazol-6-yl)-2-oxo-1,2-dihydropyridine-3-carboxylic acid] | < 1 | 12.5 to 150 (≈ 37.8 to 454 µM) | 1 to 3.5 (≈ 3.03 to 10.6 µM) | 12.5 to 150 (≈ 37.8 to 454 µM) | 12.5 to 150 (≈ 37.8 to 454 µM) | 12.5 to 150 (≈ 37.8 to 454 µM) | < 1 | – | – | – | – | – | – |
| CCc1cc(C(=O)O)c(=O)[nH]c1-c1ccc2c(c1)cc(CN(C)C)n2C [Cpd 122, 6-(2-((dimethylamino)methyl)-1-methyl-1H-indol-5-yl)-5-ethyl-2-oxo-1,2-dihydropyridine-3-carboxylic acid] | < 1 | 12.5 to 150 (≈ 35.4 to 424 µM) | < 1 | 12.5 to 150 (≈ 35.4 to 424 µM) | 12.5 to 150 (≈ 35.4 to 424 µM) | 12.5 to 150 (≈ 35.4 to 424 µM) | – | < 1 | < 1 | 12.5 to 150 (≈ 35.4 to 424 µM) | 12.5 to 150 (≈ 35.4 to 424 µM) | 3.5 to 12.5 (≈ 9.9 to 35.4 µM) | < 1 |
| CCc1cc(C(=O)O)c(=O)[nH]c1-c1ccc2c(c1)cc(CN1CCCC1)n2C [Cpd 124, 5-ethyl-6-(1-methyl-2-(pyrrolidin-1-ylmethyl)-1H-indol-5-yl)-2-oxo-1,2-dihydropyridine-3-carboxylic acid] | < 1 | 12.5 to 150 (≈ 32.9 to 395 µM) | < 1 | 12.5 to 150 (≈ 32.9 to 395 µM) | 12.5 to 150 (≈ 32.9 to 395 µM) | 12.5 to 150 (≈ 32.9 to 395 µM) | – | < 1 | 1 to 3.5 (≈ 2.64 to 9.22 µM) | 12.5 to 150 (≈ 32.9 to 395 µM) | 12.5 to 150 (≈ 32.9 to 395 µM) | 3.5 to 12.5 (≈ 9.22 to 32.9 µM) | < 1 |
| CCc1cc(C(=O)O)c(=O)[nH]c1-c1ccc2c(c1)cc1n2CCC1N(C)C (centres unmarked) [Cpd 152, 6-(1-(dimethylamino)-2,3-dihydro-1H-pyrrolo[1,2-a]indol-7-yl)-5-ethyl-2-oxo-1,2-dihydropyridine-3-carboxylic acid] | < 1 | 12.5 to 150 (≈ 34.2 to 410 µM) | < 1 | 12.5 to 150 (≈ 34.2 to 410 µM) | 12.5 to 150 (≈ 34.2 to 410 µM) | 12.5 to 150 (≈ 34.2 to 410 µM) | – | 3.5 to 12.5 (≈ 9.58 to 34.2 µM) | < 1 | 12.5 to 150 (≈ 34.2 to 410 µM) | 12.5 to 150 (≈ 34.2 to 410 µM) | 12.5 to 150 (≈ 34.2 to 410 µM) | – |
| CCc1cc(C(=O)O)c(=O)[nH]c1-c1ccc2c(c1)cc(CCN1CCCC1)n2C [Cpd 159, 5-ethyl-6-(1-methyl-2-(2-(pyrrolidin-1-yl)ethyl)-1H-indol-5-yl)-2-oxo-1,2-dihydropyridine-3-carboxylic acid] | < 1 | 12.5 to 150 (≈ 31.8 to 381 µM) | < 1 | 12.5 to 150 (≈ 31.8 to 381 µM) | 12.5 to 150 (≈ 31.8 to 381 µM) | 12.5 to 150 (≈ 31.8 to 381 µM) | – | 3.5 to 12.5 (≈ 8.89 to 31.8 µM) | < 1 | 12.5 to 150 (≈ 31.8 to 381 µM) | 12.5 to 150 (≈ 31.8 to 381 µM) | 3.5 to 12.5 (≈ 8.89 to 31.8 µM) | – |
| CCc1cc(C(=O)O)c(=O)[nH]c1-c1ccc2c(c1)cc(CCN1CCCCC1)n2C [Cpd 160, 5-ethyl-6-(1-methyl-2-(2-(piperidin-1-yl)ethyl)-1H-indol-5-yl)-2-oxo-1,2-dihydropyridine-3-carboxylic acid] | < 1 | 12.5 to 150 (≈ 30.7 to 368 µM) | < 1 | 12.5 to 150 (≈ 30.7 to 368 µM) | 12.5 to 150 (≈ 30.7 to 368 µM) | 12.5 to 150 (≈ 30.7 to 368 µM) | – | 1 to 3.5 (≈ 2.45 to 8.59 µM) | < 1 | 12.5 to 150 (≈ 30.7 to 368 µM) | 12.5 to 150 (≈ 30.7 to 368 µM) | 12.5 to 150 (≈ 30.7 to 368 µM) | – |
